The values below come from ChEMBL document CHEMBL1932978, “Inhibitors of human 2,3-oxidosqualene cyclase (OSC) discovered by virtual screening” (Bioorg Med Chem Lett, 2012).

The inhibition is the relative decrease from the control value, in per cent. Broadly, the IC50 is the midpoint of a concentration-inhibition curve. A low value points to greater potency in that assay.

For assay [1], the target named is T1, Lanosterol synthase (Homo sapiens) (UniProt P48449).
T1 sequence (whole entry): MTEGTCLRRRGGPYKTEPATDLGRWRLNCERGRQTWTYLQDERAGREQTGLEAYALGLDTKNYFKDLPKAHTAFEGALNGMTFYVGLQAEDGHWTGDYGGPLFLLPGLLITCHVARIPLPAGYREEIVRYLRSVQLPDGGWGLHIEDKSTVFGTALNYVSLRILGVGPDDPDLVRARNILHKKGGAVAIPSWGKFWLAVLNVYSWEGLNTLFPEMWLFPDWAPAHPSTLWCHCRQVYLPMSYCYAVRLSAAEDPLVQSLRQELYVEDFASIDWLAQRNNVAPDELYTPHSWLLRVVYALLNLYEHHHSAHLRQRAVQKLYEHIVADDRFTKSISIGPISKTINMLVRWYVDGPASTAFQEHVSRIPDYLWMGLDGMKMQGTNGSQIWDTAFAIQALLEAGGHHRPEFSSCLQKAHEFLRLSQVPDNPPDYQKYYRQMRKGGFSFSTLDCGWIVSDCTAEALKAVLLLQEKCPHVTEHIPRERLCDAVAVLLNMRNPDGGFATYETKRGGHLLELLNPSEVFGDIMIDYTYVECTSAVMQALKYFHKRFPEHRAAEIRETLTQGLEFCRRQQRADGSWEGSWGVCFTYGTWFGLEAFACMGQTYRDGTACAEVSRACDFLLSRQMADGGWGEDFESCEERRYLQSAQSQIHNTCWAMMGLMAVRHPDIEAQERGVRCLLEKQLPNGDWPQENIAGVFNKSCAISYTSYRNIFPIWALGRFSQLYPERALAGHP
The assay is described as follows: Inhibition of human OSC expressed in Saccharomyces cerevisiae at 20 uM by gas chromatography relative to LDAO2.

Another assay has as its target T2, Lanosterol synthase (Homo sapiens, UniProt P48449).
T2 sequence (P48449 whole entry): T1 sequence (whole entry)
Kind of assay: Inhibition of human OSC expressed in Saccharomyces cerevisiae by gas chromatography.

Turning to `COc1ccc(-n2c(C)cc(CNCc3ccc(CN(C)C)cc3)c2C)cc1`, the inhibition in assay [1] stood at 75%. With `O=C(CCc1ccc(CN2CCCC2)cc1)Cn1cnc2sc(-c3ccccc3)cc2c1=O`, in assay [1], the inhibition was 87%. On Lanosterol synthase, this molecule gave an IC50 of 5.02 µM. For `CN(C)Cc1ccc(CNC(=O)Nc2ccc(Cl)cc2)cc1`, in that order: 97% and 3.12 µM. Regarding `O=C(Cc1ccc(Cl)cc1)c1ccc(C(=O)NCCCn2ccnc2)[nH]1`, the inhibition in assay [1] was 59%.

Consider `Cc1cc(CNCc2ccc(CN(C)C)cc2)c(C)n1CC(C)C`, for which the inhibition in assay [1] turned out to be 27%. For `CN(C)Cc1ccc(CNC(=O)c2ccc(C(F)(F)F)cc2)cc1`, in assay [1], the inhibition is 101%. Moreover, the midpoint of inhibition at Lanosterol synthase, the IC50, lay at 1.38 µM. `S=C(NCc1ccccc1)Nc1ccc(Cc2ccncc2)cc1`: in assay [1], the inhibition turned out to be 96%. This molecule displayed an IC50 against Lanosterol synthase of 4.75 µM. For `CN(C)Cc1ccc(CNC(=O)COc2ccc3ccccc3c2)cc1`, in that order: 83% and 10.8 µM. As for `CN(C)Cc1ccc(CNCc2cnn(-c3ccccc3)n2)cc1`, in assay [1], the inhibition was found to be 77%. For `CCCCCCCCCCCC[N+](C)(C)[O-]`, in assay [1], the inhibition stood at 100%. The molecule further showed a 50% inhibitory concentration (IC50) against Lanosterol synthase of 6.31 µM.
